# Legend:
# [1] = Plasma protein binding by equilibrium dialysis; type: in vitro ADME; settings: rat, 18 hours at 37° C., plasma vs isotonic phosphate buffer pH 7.4, read-out: % free in plasma
# Description: The plasma protein binding of compounds was measured using the equilibrium dialysis technique (W. Lindner et al, J. Chromatography, 1996, 677, 1-28). Compound was dialysed at a concentration of 20 μM for 18 hours at 37° C. with plasma and isotonic phosphate buffer pH 7.4 (1 ml of each in the dialysis cell). A Spectrum® 20-cell equilibrium dialyser was used together with Teflon, semi-micro dialysis cells and Spectra/Por®2 membrane discs with a molecular weight cut off 12-14000 Dalton, 47 mm (supplied by PerBio Science UK Ltd, Tattenhall, Cheshire). Plasma and buffer samples are removed following dialysis and analysed using HPLCUV/MS (high performance liquid chromatography with UV and mass spec detection) to give the % free level in plasma.
# [2] = Plasma levels following oral administration to rats; type: in vivo; settings: rat, normalised dose of 1 mg of compound per kilogram of rat body weight
# Description: Planetary Milled compounds [15 mins, 500 rpm, 5 Zirconium Balls, in a Puluerisette 7 Mill (Glen Creston Ltd, Stanmore, Middlesex, UK)] were suspended in 0.5% HPMC Tween and dosed to High Fat Fed (Research Diets, D12451, ad lib feeding 14 days) Female Alderley Park Zucker or Alderley Park Wistar rats at rate of 5 mls/kg, at doses between 0.3 and 10 mg/kg by oral gavage.
# Samples of plasma were obtained either by conscious blood sampling or terminal blood sampling as follows:
# Conscious blood sampling (for compound level or blood chemistry)—Intravenous blood samples were taken from tail vein using 600 μl Starstedt Multivette (EDTA) and 22 G needle at the required time point. […]
# The reconstituted samples were then analysed using high performance liquid chromatography with tandem mass spectrometry detection (HPLC-MS-MS)”. […]
# The concentration of test samples was determined from the ratio of the peak height of the test sample to the peak height of the internal standard. The concentration of the test sample was calculated with reference to a standard curve relating the ratio to the concentration prepared by using known concentrations of test sample added to samples of rat plasma using (3-isopropoxy-5-benzyoxy-benzoyl)amino pyridine 3-carboxylic acid as an internal standard, treated as described above.
# [3] = Estimation of plasma half-life; type: in vivo; settings: rat, typically determined following intravenous administration, read-out: t½ (half life in plasma) (converted)
# From the text: The plasma half-life is the time taken for the concentration of compound in the plasma to decline to half of its original value. This is typically determined following intravenous administration of the test compound, followed by measurement of the compound concentrations in plasma samples as described above. The plasma half-life is estimated from a semilogarithmic plot, plotting the log of the plasma concentration (lnCp) against sample time (t, linear). The apparent first-order elimination rate constant, k, is equal to the slope of the line, and the elimination half-life (t½) is […] (Gibaldi, M and Perrier, D, 1975 Pharmacokinetics, Marcel Dekker, New York): […]
# glucokinase (GLK) = biological target: T1, glucokinase (GLK) (Homo sapiens, UniProt P35557); experiment: biochemical
# T1 sequence (P35557 1-466 isoform P35557-2): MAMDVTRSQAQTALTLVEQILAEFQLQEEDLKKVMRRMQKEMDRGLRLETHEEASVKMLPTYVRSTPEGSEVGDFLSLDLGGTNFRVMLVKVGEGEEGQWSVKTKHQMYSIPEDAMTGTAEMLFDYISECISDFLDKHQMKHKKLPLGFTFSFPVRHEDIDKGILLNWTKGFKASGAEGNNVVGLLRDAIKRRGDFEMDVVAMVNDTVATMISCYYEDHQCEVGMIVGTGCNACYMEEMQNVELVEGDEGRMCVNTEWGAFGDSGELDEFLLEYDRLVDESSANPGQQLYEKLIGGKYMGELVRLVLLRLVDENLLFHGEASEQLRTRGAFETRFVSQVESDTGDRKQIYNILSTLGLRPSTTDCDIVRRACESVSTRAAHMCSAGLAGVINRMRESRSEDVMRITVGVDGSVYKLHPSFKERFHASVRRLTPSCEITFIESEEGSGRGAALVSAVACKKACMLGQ
smiles,measurement,setting,value
"COC[C@H](C)Oc1cc(Oc2ccc3c(c2)OCO3)cc(C(=O)Nc2ccc(C(=O)O)cn2)c1 [Example 2, 6-{[(3-(1,3-benzodioxol-5-yloxy)-5-{[(1S)-1-methyl-2-(methyloxy)ethyl]oxy}phenyl)carbonyl]amino}pyridine-3-carboxylic acid]","fraction unbound at 18 hours, 20 μM",[1],0.0026
same,Peak Blood levels (including both bound and free),[2],2.7 µM
same,half-life,[3],384 min
same,EC50,glucokinase (GLK),60 nM

# Reference: US20090018157A1, “Chemical compounds” (priority 2003, published 2009)
